# Source: ChEMBL document CHEMBL6182942, “Discovery of a Selective, Novel TGF-βR1 Inhibitor GFH018 for the Treatment of Solid Tumors” (J Med Chem, 2025)
# Legend:
# [1] = biological target: Mitogen-activated protein kinase 14 (Homo sapiens, UniProt Q16539); test: Inhibition of p38alpha (unknown origin) measured after 40 mins in presence of [gamma-33P]ATP by microbeta liquid scintillation counting analysis; type: toxicity
# [2] = biological target: T1, TGF-beta receptor type-1 (Homo sapiens, UniProt P36897); test: Inhibition of TGFbetaR1 (unknown origin) in presence of ATP
# T1 sequence (P36897 whole entry): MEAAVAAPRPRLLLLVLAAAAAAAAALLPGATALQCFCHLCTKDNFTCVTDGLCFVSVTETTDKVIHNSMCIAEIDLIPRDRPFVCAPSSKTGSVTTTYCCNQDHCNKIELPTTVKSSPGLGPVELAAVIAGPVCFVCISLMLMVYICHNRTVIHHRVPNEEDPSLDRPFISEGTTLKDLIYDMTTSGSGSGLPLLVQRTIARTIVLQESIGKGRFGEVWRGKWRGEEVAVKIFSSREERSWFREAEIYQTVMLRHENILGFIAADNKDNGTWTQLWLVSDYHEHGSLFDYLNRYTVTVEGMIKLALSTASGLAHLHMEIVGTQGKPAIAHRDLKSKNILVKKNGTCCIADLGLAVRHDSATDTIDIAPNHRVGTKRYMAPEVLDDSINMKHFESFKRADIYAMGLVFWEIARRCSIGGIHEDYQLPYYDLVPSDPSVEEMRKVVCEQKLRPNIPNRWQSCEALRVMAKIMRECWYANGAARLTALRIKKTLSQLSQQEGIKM
# [3] = species: Homo sapiens; test: Selectivity ratio of IC50 for p38alpha (unknown origin) to IC50 for TGFbetaR1 (unknown origin)
# [4] = Apparent permeability across apical to basolateral side in dog MDCK-MDR1 cells at 2 uM measured over 150 mins by LC-MS/MS analysis; type: ADME, cell-based, Canis lupus familiaris
# [5] = test system: MDR1; test: Efflux ratio of apparent permeability in dog MDCK-MDR1 cells at 2 uM measured over 150 mins by LC-MS/MS analysis; type: ADME, cell-based, Canis lupus familiaris
# [6] = Metabolic stability in human liver microsomes assessed as parent compound remaining at 1 uM preincubated for 5 mins followed by NADPH addition by LC-MS/MS analysis; type: ADME, Microsome; settings: read-out: Stability
# [7] = Metabolic stability in mouse liver microsomes assessed as parent compound remaining at 1 uM preincubated for 5 mins followed by NADPH addition by LC-MS/MS analysis; type: ADME, Microsome; settings: read-out: Stability
# [8] = test system: NIH3T3; test: Antiproliferative activity against mouse NIH/3T3 cells by celltitter-glo assay; type: functional, cell-based
# [9] = Oral bioavailability in CD-1 mouse at 5 mg/kg via gavage by LC-MS/MS analysis; type: ADME, organism-based; settings: in vivo
# [10] = Cmax in CD-1 mouse at 5 mg/kg, po via gavage by LC-MS/MS analysis; type: ADME, organism-based; settings: in vivo
# [11] = Clearance in CD-1 mouse at 1 mg/kg, iv by LC-MS/MS analysis; type: ADME, organism-based; settings: in vivo
# [12] = Volume of distribution at steady state in CD-1 mouse at 1 mg/kg, iv by LC-MS/MS analysis; type: ADME, organism-based; settings: in vivo, read-out: Vdss
# [13] = AUC (0 to last) in CD-1 mouse at 5 mg/kg, po via gavage by LC-MS/MS analysis; type: ADME, organism-based; settings: in vivo
# [14] = Half life in CD-1 mouse at 1 mg/kg, iv by LC-MS/MS analysis; type: ADME, organism-based; settings: in vivo
# [15] = Half life in CD-1 mouse at 5 mg/kg, po via gavage by LC-MS/MS analysis; type: ADME, organism-based; settings: in vivo
# Sequence of Mitogen-activated protein kinase 14 (Q16539 whole entry): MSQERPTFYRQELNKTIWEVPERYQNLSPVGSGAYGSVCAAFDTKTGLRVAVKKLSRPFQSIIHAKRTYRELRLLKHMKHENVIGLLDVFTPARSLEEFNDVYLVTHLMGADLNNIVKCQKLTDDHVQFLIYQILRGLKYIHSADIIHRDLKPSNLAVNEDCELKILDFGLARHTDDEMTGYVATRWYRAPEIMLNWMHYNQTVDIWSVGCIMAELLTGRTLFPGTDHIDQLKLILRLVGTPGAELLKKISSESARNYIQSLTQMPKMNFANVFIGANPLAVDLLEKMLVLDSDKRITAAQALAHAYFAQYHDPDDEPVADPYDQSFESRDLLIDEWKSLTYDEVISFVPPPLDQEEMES
Structure (SMILES),IC50 [1],IC50 [2],Ratio IC50 [3],also measured
Cc1cccc(-c2nn3c(c2-c2ccc4ncnn4c2/C=C/C(=O)NCCO)CCC3)n1,6900 nM,281 nM,24.6,–
CNC(=O)/C=C/c1c(-c2c(-c3cccc(C)n3)nn3c2CCC3)ccc2ncnn12,> 3330 nM,248 nM,> 13,–
Cc1cccc(-c2nn(C3CCCC3)cc2-c2ccc3ncnn3c2/C=C/C(N)=O)n1,–,276 nM,–,–
Cc1cccc(-c2nn3c(c2-c2ccc4ncsc4c2/C=C/C(N)=O)CCC3)n1,476 nM,207 nM,2.3,–
Cc1cccc(-c2nn3c(c2-c2ccc4ncnn4c2/C=C/C(=O)NO)CCC3)n1,> 3330 nM,41.2 nM,> 80,"Papp A→B at 2.5 h, 2 µM [4]: 0.15 ×10⁻⁶ cm/s; efflux ratio at 2.5 h, 2 µM [5]: 43.4; remaining at 1 µM [6]: 42.5%; remaining at 1 µM [7]: 41.6%"
Cc1cccc(-c2nn3c(c2-c2ccc4ncnn4c2CCC(N)=O)CCC3)n1,–,928 nM,–,–
Cc1cccc(-c2nn3c(c2-c2ccc(F)c4c2CN(C(N)=O)CC4)CCC3)n1,–,> 5000 nM,–,–
Cc1cccc(-c2nn3c(c2-c2ccc4ncnn4c2/C=C/C(=O)O)CCC3)n1,–,76.8 nM,–,"Papp A→B at 2.5 h, 2 µM [4]: 0.43 ×10⁻⁶ cm/s; efflux ratio at 2.5 h, 2 µM [5]: 1.46"
Cc1cccc(-c2nn(Cc3cccc(C(F)F)c3)cc2-c2ccc3ncnn3c2/C=C/C(N)=O)n1,2050 nM,164 nM,–,IC50 [8]: 900 nM; remaining at 1 µM [6]: 9.5%; remaining at 1 µM [7]: 0%
Cc1cccc(-c2nn3c(c2-c2ccnc(Nc4ccc(C(N)=O)cc4)c2)CCC3)n1,26 nM,90.9 nM,0.3,–
Cc1cccc(-c2nn3c(c2-c2ccnc4ccc(C(N)=O)cc24)CCC3)n1 [GALUNISERTIB],783 nM,–,–,–
Cc1cccc(-c2nn3c(c2-c2ccc4ncnn4c2CNc2cc[nH]n2)CCC3)n1,> 10000 nM,365 nM,> 27.4,–
Cc1cccc(-c2nn3c(c2-c2ccc4ncnn4c2/C=C/C(=O)NC2CC2)CCC3)n1,5210 nM,279 nM,18.6,–
Cc1cccc(-c2nn3c(c2-c2ccc4ncnn4c2CN2CC(O)C2)CCC3)n1,–,> 5000 nM,–,–
Cc1cccc(-c2nn3c(c2-c2ccc4ncnn4c2CN2CCNC(=O)C2)CCC3)n1,–,> 5000 nM,–,–
Cc1cccc(-c2nn(Cc3cccc(C#N)c3)cc2-c2ccc3ncnn3c2C=CC(N)=O)n1,> 3330 nM,223 nM,–,IC50 [8]: 1660 nM; remaining at 1 µM [6]: 56.2%; remaining at 1 µM [7]: 9.8%
Cc1cccc(-c2nn3c(c2-c2ccc4ncnn4c2C(N)=O)CCC3)n1,–,4290 nM,–,–

Structure (SMILES),IC50 [1],IC50 [2],Ratio IC50 [3],also measured
Cc1cccc(-c2nn3c(c2-c2ccc4ncnn4c2/C=C/C(N)=O)CCCC3)n1,1580 nM,136 nM,11.6,–
CCNC(=O)/C=C/c1c(-c2c(-c3cccc(C)n3)nn3c2CCC3)ccc2ncnn12,4750 nM,312 nM,15.2,–
Cc1cccc(-c2nn3c(c2-c2ccnc(-c4cccc(C(N)=O)c4)c2)CCC3)n1,–,3460 nM,–,–
Cc1cccc(-c2nn3c(c2-c2ccnc(Nc4ccc(S(N)(=O)=O)cc4)c2)CCC3)n1,15 nM,82.6 nM,0.2,–
Cc1cccc(-c2nn(C)c(C)c2-c2ccc3ncnn3c2/C=C/C(N)=O)n1,> 10000 nM,253 nM,> 40,–
Cc1cccc(-c2nn3c(c2-c2ccc4nccn4c2/C=C/C(N)=O)CCC3)n1,–,1020 nM,–,–
Cc1cccc(-c2nn3c(c2-c2ccc4ncccc4c2/C=C/C(N)=O)CCC3)n1,–,971 nM,–,–
Cc1cccc(-c2nn(C(C)C)cc2-c2ccc3ncnn3c2/C=C/C(N)=O)n1,–,423 nM,–,–
Cc1cccc(-c2nn3c(c2-c2ccnc4c2CN(C(N)=O)CC4)CCC3)n1,–,> 5000 nM,–,–
Cc1cccc(-c2nn3c(c2-c2ccc4ncnn4c2/C=C/C(C)(C)O)CCC3)n1,> 10000 nM,83 nM,–,"bioavailability [9]: 5.48%; Cmax [10]: 170 nM/ml; Papp A→B at 2.5 h, 2 µM [4]: 8.48 ×10⁻⁶ cm/s; clearance [11]: 105 mL/min/kg; efflux ratio at 2.5 h, 2 µM [5]: 6.12; Vd [12]: 0.849 L/kg; AUClast [13]: 104 nM.hr/ml; IC50 [8]: 1620 nM; half-life [14]: 7.74 min; remaining at 1 µM [6]: 54.8%; remaining at 1 µM [7]: 7.8%; half-life [15]: 50.5 min"
CCc1cccc(-c2nn3c(c2-c2ccc4ncnn4c2/C=C/C(N)=O)CCC3)n1,5380 nM,420 nM,12.8,–
Cc1nc(-c2nn3c(c2-c2ccc4ncnn4c2/C=C/C(N)=O)CCC3)ccc1Cl,–,4890 nM,–,–
Cc1cccc(-c2nn3c(c2-c2ccnc(NC4CCN(C(N)=O)CC4)c2)CCC3)n1,–,> 5000 nM,–,–
Cc1cc(C)nc(-c2nn3c(c2-c2ccc4ncnn4c2/C=C/C(N)=O)CCC3)c1,–,3240 nM,–,–
CCOC(=O)/C=C/c1c(-c2c(-c3cccc(C)n3)nn3c2CCC3)ccc2ncnn12,5910 nM,324 nM,–,"Papp A→B at 2.5 h, 2 µM [4]: 19.4 ×10⁻⁶ cm/s"
Cc1cccc(-c2nn3c(c2-c2cn(C)c(=O)c4ccc(C(N)=O)cc24)CCC3)n1,–,> 5000 nM,–,–
